Results published in patent publication US9809853B2, “Calcium-activated chloride channel involved in human sweat formation” (BRAIN Biotechnology Research and Information Network AG, priority 2012, dated 2017).

Biological target: T1, TMEM16A(ac) (Homo sapiens, UniProt Q5XXA6, DEL476-501)
T1 construct: expressed in transfected cells
T1 sequence (Q5XXA6 with tags, fused parts or gaps DEL476-501): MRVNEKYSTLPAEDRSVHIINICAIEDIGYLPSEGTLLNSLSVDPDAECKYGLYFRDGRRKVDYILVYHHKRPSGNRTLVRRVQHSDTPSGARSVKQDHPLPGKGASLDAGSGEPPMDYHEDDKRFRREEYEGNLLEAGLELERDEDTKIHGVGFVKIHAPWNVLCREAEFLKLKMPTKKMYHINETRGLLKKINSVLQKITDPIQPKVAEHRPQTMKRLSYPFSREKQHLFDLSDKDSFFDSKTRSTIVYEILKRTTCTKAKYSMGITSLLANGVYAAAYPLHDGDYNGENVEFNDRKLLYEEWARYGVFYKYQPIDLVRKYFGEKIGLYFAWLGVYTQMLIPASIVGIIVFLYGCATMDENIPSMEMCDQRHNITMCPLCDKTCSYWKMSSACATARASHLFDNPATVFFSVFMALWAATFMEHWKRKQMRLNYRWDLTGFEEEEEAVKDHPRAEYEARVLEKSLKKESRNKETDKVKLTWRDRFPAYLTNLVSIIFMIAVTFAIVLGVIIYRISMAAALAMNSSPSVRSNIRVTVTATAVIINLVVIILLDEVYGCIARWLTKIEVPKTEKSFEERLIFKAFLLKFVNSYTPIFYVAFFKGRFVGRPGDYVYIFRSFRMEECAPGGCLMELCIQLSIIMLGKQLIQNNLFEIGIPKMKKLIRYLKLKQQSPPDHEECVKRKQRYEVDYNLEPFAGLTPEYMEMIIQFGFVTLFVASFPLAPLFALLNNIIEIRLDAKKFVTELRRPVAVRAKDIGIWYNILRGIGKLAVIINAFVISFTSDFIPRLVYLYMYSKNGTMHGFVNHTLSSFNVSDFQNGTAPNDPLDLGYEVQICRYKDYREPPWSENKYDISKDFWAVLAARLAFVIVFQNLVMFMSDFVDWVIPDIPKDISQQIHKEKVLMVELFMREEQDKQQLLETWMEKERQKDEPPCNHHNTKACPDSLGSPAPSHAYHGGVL
Experiment: hsYFP quenching assay in NCL-SG3-hsYFP-TMEM16A(ac) cells
Assay type: cell-based
Settings: 330 μM ATP; for Effect of pretreatment on hsYFP quenching / Ca^2+-dependent Cl^− secretion after ATP: cells overexpressing TMEM16A(ac)
Description: NCL-SG3-hsYFP, NCL-SG 3-hsYFP-TMEM16A(ac) and NCL-SG3-hsYFP-TMEM16A(acΔe3) cells were untreated (basal activity) or stimulated with ATP (330 μM). Quenching of hsYFP fluorescence was determined. The rate of I^− influx (sec^−1) was calculated from the initial slope of measured hsYFP fluorescence (ΔYFP fluorescence/Δtime) and is a direct measure of CaCC activity. For better comparison fold changes compared to basal activity of parental cells are shown. […] All influx rate differences are higly statistically significant, except the basal influx rate of parental and TMEM16A(ac) overexpressing NCL-SG3-hsYFP cells (Student's t-test, two-tailed; *** p-value<0.0001).
TMEM16A(ac) and TMEM16A(acΔe3) are present in human eccrine sweat glands and were therefore obtained by RT-PCR amplification using TRIzol® (Invitrogen) extracted RNA from freshly isolated human eccrine sweat glands using oligonucleotides (forward 5′-[…]; reverse 5′-[…]) SEQ ID NOS: 5 and 6 , which amplify full-length TMEM16A, and subsequently cloned into the proprietary eukaryotic gene expression plasmid (pEF1α-TMEM16A(ac) and pEF1α-TMEM16A(acΔe3), FIG. 6A). […] Both genes are coupled by an internal ribosomal entry site (IRES) to enable efficient translation of both open reading frames located on the same mRNA. […]
Taken together, NCL-SG3-hsYFP cells can be used to monitor Ca^2+-dependent Cl^− fluxes, which represent the initial step in primary sweat formation in sweat gland cells. […] Microplates were transferred into an automated fluorescence plate reader (FlexStation®, Molecular Devices) and cellular hsYFP fluorescence was continuously recorded every 3.5 sec until end of the experiment (excitation at 485 nm, emission at 535 nm, cutoff 515 nm). […] NCL-SG3-hsYFP cells allow quantitative evaluation of in vivo Cl^− channel activity (FIGS. 9 and 10D). To determine the exact rate of Cl^− efflux/I^− influx the hsYFP fluorescence was plotted against time (ΔYFP fluorescence/Δtime). […]

Effect of pretreatment on hsYFP quenching / Ca^2+-dependent Cl^− secretion after ATP | Effect of pretreatment on hsYFP quenching / Ca^2+-dependent Cl^− secretion after ATP (listed as tannic acid) | Structure (SMILES) | ATP-induced activity (I^− influx rate, fold) (TMEM16A(ac) overexpressing cells) [fold]
significant reduction of hsYFP quenching | inhibited | O=C(OC[C@H]1O[C@@H](OC(=O)c2cc(O)c(O)c(OC(=O)c3cc(O)c(O)c(O)c3)c2)[C@H](OC(=O)c2cc(O)c(O)c(OC(=O)c3cc(O)c(O)c(O)c3)c2)[C@@H](OC(=O)c2cc(O)c(O)c(OC(=O)c3cc(O)c(O)c(O)c3)c2)[C@@H]1OC(=O)c1cc(O)c(O)c(OC(=O)c2cc(O)c(O)c(O)c2)c1)c1cc(O)c(O)c(OC(=O)c2cc(O)c(O)c(O)c2)c1 [TA, tannic acid] | –
– | – | Nc1ncnc2c1ncn2[C@@H]1O[C@H](COP(=O)(O)OP(=O)(O)OP(=O)(O)O)[C@@H](O)[C@H]1O [ATP] | 10
